From patent US9751919B2, “Antimicrobial compositions comprising a hyaluronic acid binding peptide and a β-lactam antibiotic” (priority 2012, dated 2017)

Experiments:
P. mirabilis = experiment: MIC, agent alone (broth microdilution); assay type: cell-based, Proteus mirabilis; conditions: footnote to Table 12; P. mirabilis 80267 and 81569
From the text: (§1) Organisms included Gram-positive cocci (2 strains of each): Methicillin-susceptible Staphylococcus aureus (MSSA), community-associated (CA) and healthcare-associated (HA) methicillin-resistant Staphylococcus aureus (MRSA), vancomycin-intermediate Staphylococcus aureus (VISA), vancomycin-resistant Staphylococcus aureus (VRSA), methicillin-resistant Staphylococcus epidermidis (MRSE), Streptococcus pyogenes, Streptococcus agalactiae, Streptococcus pneumoniae, Enterococcus faecalis, Enterococcus faecium and vancomycin-resistant enterococcus (VRE). Gram-negative bacilli tested (2 strains of each) included: E. coli, Pseudomonas aeruginosa, Klebsiella pneumoniae, K. oxytoca, Enterobacter cloacae, P. mirabilis and Stenotrophomonas maltophilia. MIC testing, following two subcultures from frozen stock were determined by the CLSI 2005 approved broth microdilution method.

[1] = tested on: MRSA, VISA, VRSA and E. coli; experiment: Checkerboard assay, panel statement; assay type: cell-based
Method: Checkerboard assays were carried out as described by Bonapace et al.
Diagnostic Microbiology and Infectious Diseases 2002; 44:363-366. In brief, checkerboard assays were performed in 96 well microtitre trays using an 8-by-8 well configuration. […] 96-well custom designed microtitre plates contained 100 ul/well of cation adjusted Mueller-Hinton broth (eg. for Enterobacteriaceae) with or without lysed horse blood (2-5% V/V) [eg. for S. pneumoniae] and were inoculated to achieve a final concentration of approximately 5×10^5 CFU/ml and incubated in ambient air for 24 hours prior to reading. Colony counts were performed periodically to confirm inocula. Quality control was performed every two weeks using a variety of ATCC QC organisms including; S. pneumoniae 49619, S. aureus 29213, E. faecalis 29212, E. coli 25922 and P. aeruginosa 27853. […] All peptides were assessed for synergy with β-lactams and vancomycin. For all antimicrobials as well as the peptides, CLSI criteria were used.
(§2) The fractional inhibitory concentration index (FIC index) was used to interpret synergy, antagonism or additivity/indifference. FIC index=FIC of drug A+FIC of drug B where:
The FIC of drug A and drug B was calculated as follows, FIC drug A=MIC of drug A in combination/MIC of drug A alone and FIC of drug B=MIC of drug B in combination/MIC of drug B alone. Synergy was defined as FIC index ≦0.5, additivity/indifference defined as a FIC between 0.5 and 4 and antagonism defined as an FIC index >4.
The fractional inhibitory concentration index (FIC index) was used to interpret synergy, antagonism or additivity/indifference. FIC index=FIC of drug A+FIC of drug B where the FIC of drug A and drug B was calculated as follows, FIC drug A=MIC of drug A in combination/MIC of drug A alone and FIC of drug B=MIC of drug B in combination/MIC of drug B alone. Synergy was defined as FIC index ≦0.5, additivity/indifference defined as an FIC of between 0.5 and 4 and antagonism defined as an FIC index >4.

P. aeruginosa = experiment: Checkerboard assay (FIC index); assay type: cell-based, Pseudomonas aeruginosa; conditions: antibiotic combined with PEP35
Method: (§3) The checkerboard assays were carried out as described by Eliopoulos and Moellering (Chapter 9) in Antibiotic in Laboratory Medicine, Lorian Ed. 1996 as well as Bonapace et al. Diagnostic Microbiology and Infectious Diseases 2002; 44:363-366 and Bonapace et al. Diagnostic Microbiology and Infectious Diseases 2000; 38:43-50. In brief, checkerboard assays were performed in 96 well microtitre trays using an 8-by-8 well configuration. […] 96-well custom designed microtitre plates contained 100 ul/well of cation adjusted Mueller-Hinton broth (eg. for Enterobacteriaceae) with or without lysed horse blood (2-5% V/V) [eg. for S. pneumoniae] and were inoculated to achieve a final concentration of approximately 5×10^5 CFU/ml and incubated in ambient air for 24 hours prior to reading. Colony counts were performed periodically to confirm inocula. Quality control was performed every two weeks using a variety of ATCC QC organisms including; S. pneumoniae 49619, S. aureus 29213, E. faecalis 29212, E. coli 25922 and P. aeruginosa 27853. For all antimicrobials as well as PEP35, CLSI criteria was used.
as §2
(§4) The FIC of drug A and drug B is calculated as follows, FIC drug A=MIC of drug A in combination/MIC of drug A alone and FIC of drug B=MIC of drug B in combination/MIC of drug B alone. Synergy is defined as FIC index ≦0.5, additivity/indifference FIC >0.5-4 and antagonism FIC index >4.
(§5) Antimicrobials used included PEP35, cefazolin, ceftriaxone, vancomycin, linezolid, tigecycline and daptomycin versus Gram-positive cocci and PEP35, gentamicin, levofloxacin, piperacillin/tazobactam, meropenem and colistin (Polymyxin E) versus Gram-negative bacilli. These agents were obtained as laboratory grade powders from their respective manufacturers. Stock solutions were prepared and dilutions made as described by the Clinical Laboratory Standards Institute (2005 CLSI).
as §1

E. cloacae = experiment: Checkerboard assay (FIC index); assay type: cell-based, Enterobacter cloacae; conditions: antibiotic combined with PEP35
Method: as §3, §2, §4, §5, §1

K. oxytoca = experiment: Checkerboard assay (FIC index); assay type: cell-based, Klebsiella oxytoca; conditions: antibiotic combined with PEP35
Method: as §3, §2, §4, §5, §1

S. maltophilia = experiment: Checkerboard assay (FIC index); assay type: cell-based, Stenotrophomonas maltophilia; conditions: antibiotic combined with PEP35
Method: as §3, §2, §4, §5, §1

[2] = with cefazolin and ceftriaxone, versus CA-MRSA, HA-MRSA, VISA and VRSA
[3] = with meropenem versus CA-MRSA, HA-MRSA, and VISA

Row | Molecule | MIC (P. mirabilis) | synergy (in words) [1, 2] | synergy (in words) [1, 3] | Avg ΣFIC (range) (P. aeruginosa; P. aeruginosa 70849) | Avg ΣFIC (range) (P. aeruginosa; P. aeruginosa 71841) | Avg ΣFIC (range) (E. cloacae; E. cloacae 80194) | Avg ΣFIC (range) (E. cloacae; E. cloacae 83128) | Avg ΣFIC (range) (K. oxytoca; K. oxytoca 75316) | Avg ΣFIC (range) (K. oxytoca; K. oxytoca 76874) | Avg ΣFIC (range) (S. maltophilia; S. maltophilia 73062) | Avg ΣFIC (range) (S. maltophilia; S. maltophilia 77424)
1 | LKQKIKHVVKLKVVVKLRSQLVKRKQN (listed as Mus sp.) [PEP35] | *PEP35 MIC > 4096 | synergistic effect | synergistic effect | – | – | – | – | – | – | – | –
2 | C[C@@H](O)[C@H]1C(=O)N2C(C(=O)O)=C(S[C@@H]3CN[C@H](C(=O)N(C)C)C3)[C@H](C)[C@H]12 [Meropenem] | – | – | – | 1.21 (1.03-1.5) | 1.10 (1.0-1.25) | 1.32 (1.03-2.12) | 1.05 (0.75-1.25) | 1.1 (1.0-1.25) | 0.80 (0.53-1.12) | 0.77 (0.5-1.03) | 1.05 (0.75-1.25)
3 | KKKKKLQLQLNLIKKKVQVSVVVVRRH (Reordered human peptide sequence) [Scrambled PEP35] | – | synergistic effect | synergistic effect | – | – | – | – | – | – | – | –
4 | piperacillin/tazobactam | – | – | – | 0.92 (0.62-1.12) | 0.88 (0.56-1.12) | 0.79 (0.5-1.06) | 0.71 (0.37-1.06) | 0.93 (0.62-1.12) | 0.83 (0.53-1.12) | 0.98 (0.62-1.25) | 1.04 (0.75-1.25)
